Assay results as given in patent publication US20230372337A1, “Combination Therapy Comprising an AXL Inhibitor” (BERGENBIO ASA, priority 2020, published 2023).
Read-outs that look alike come from different tables or passages of the source.

Legend:
[1] = test system: LL2 cells; assay: qRTPCR of IFN related genes in Lewis lung carcinoma (LL2) cells in vitro (Example 4); format: cell-based, mouse
Experimental: (§1) 4T1 cells (ATCC, CRL-2539) were cultured in RPMI-1640 (Sigma, Cat. #R8758) supplemented with 10% fetal bovine serum (FBS), L-glutamine (4 mM), streptomycin (5 μg/ml) and penicillin (5 U/ml). […] Lewis lung carcinoma cells LL/2 (LLC1) (ATCC, CRL-1642™) were cultured in Dulbecco's Modified Eagle's Medium ATCC® 30-2002™ (4 mM L-glutamine, 4500 mg/L glucose, 1 mM sodium pyruvate, and 1500 mg/L sodium bicarbonate).
RNA was extracted from snap frozen tumors using the RNEasy Microarray Tissue Mini kit from Qiagen following the manufacturer's instructions. As tumors contained Doxorubicin and powderizing them could expose personnel to harmful substances, the RNA was extracted in a closed system using the GentleMACS dissociator and M Tubes. Purity and concentration of RNA was measured using Nanodrop. RT^2 Profiler™ PCR Array. cDNA was synthesized from RNA using the RT^2 First Strand kit (Qiagen) according to the manufacturer's instructions. cDNA was mixed with RT^2 SYBR Green Mastermix (Qiagen) and loaded into RT^2 Profiler™ PCR Array Mouse Type I Interferon Response or RT^2 Profiler™ PCR Array Mouse Epithelial to Mesenchymal Transition (EMT), analyzing the expression of the genes listed in Table 17. The plates were analyzed using Light Cycler 480 (Roche) and data were analyzed using the Qiagen Data Analysis Centre and Graph Pad (Prism).
Chemotherapeutic agents commonly used to treat lung cancer patients were evaluated for effects on the IFN response. Cisplatin, navelbine and docetaxel were tested in vitro in combination with bemcentinib.
(§2) The IC50 of the different drugs were calculated by resazurin viability assay. […] The cells were treated for 48 hours.

[2] = test system: LL2 cells; assay: Resazurin viability assay of LL2 cells (Example 4); format: cell-based, mouse
Experimental: as §1, §2

[3] = test system: 43 mouse cytokines; assay: Plasma cytokines, ProcartaPlex Multiplex Immunoassay (Luminex) (Example 2); format: in vivo, Balb/c mice; settings: DMXAA, 48 h post injection, treated groups
Experimental: The manufacturer user guide was followed. The samples were analyzed by (MAGPIX) and the results were obtained as concentration in pg/ml of mouse plasma. At least 3 samples per group, 4 for many, were analyzed.

[4] = test system: 4T1 mammary carcinoma cells; assay: Tumor growth, 4T1 model (Example 2); parameters: species or system Balb/c mice; settings: short in vivo study, single i.t. injection day 15
Experimental: Tumor growth was measured with a digital handheld caliper twice weekly from emergence of tumor and until the day of euthanasia

[5] = test system: Yumm1.7 cells; assay: qRTPCR of IFN related genes in Yumm1.7 cells in vitro (Example 4); format: cell-based, mouse; settings: Yumm1.7 cells; DMXAA treatment; 13 ISG tested
[6] = test system: 4T1 cells; assay: qRTPCR of IFN related genes in 4T1 cells in vitro (Example 4); format: cell-based, mouse; settings: with or without bemcentinib
[7] = test system: type I IFN related genes (ISG); assay: RT2 Profiler PCR Array Mouse Type I Interferon Response on 4T1 tumors (Example 2); format: in vivo, Balb/c mice
Description: Bemcentinib was given as a loading dose for 3 days (11-13 after tumor implantation) and then as a standard dose until sacrifice.
9 mice have been excluded of the study because of the absence of tumor on day 11. On day 11 post implantation half of the cages were placed in the bemcentinib treated group and the other half in the […]. The average tumor volume when bemcentinib treatment was initiated (day 11) was 54.99 mm^3. […] The tumor volumes when bemcentinib treatment was initiated and the day of randomization are recorded in table 8. The intra tumomoral injection of doxorubicin and sting agonists was adjusted to the tumor volume.
Doxorubicin is provided in a 2 mg/ml solution. As it is technically challenging to inject 50 ul liquid into tumors measuring <100 mm^3, the total dosing volume was calculated based on the following formula: V=50 ul×(TV/120). This is done to minimize variability due to leakage during intratumoral injection. For the 1 mg/kg dose (E,F) Doxorubicin was given at a concentration of 0.5 mg/ml, which corresponds to 1 mg/kg for a 25 g mouse with a tumor of 120 mm^3, and 1 mg/kg for a 20 g mouse with a tumor of 100 mm^3. For 3 mg/kg dose (G,H), a solution of 1.5 mg/ml was used and same volumes was injected. For the 6 mg/kg dose (I,J) the commercial solution of 2 mg/ml will be used and 75 ul was injected for tumor with a volume of 120 mm^3.
The same formula as for doxorubicin was used V=50 ul×(TV/120).
RNA was extracted from […] snap frozen tumors using the RNEasy Microarray Tissue Mini kit from Qiagen following the manufacturer's instructions. As tumors contained Doxorubicin and powderizing them could expose personnel to harmful substances, the RNA was extracted in a closed system using the GentleMACS dissociator and M Tubes. Purity and concentration of RNA was measured using Nanodrop. cDNA was synthesized from RNA using the RT^2 First Strand kit (Qiagen) according to the manufacturer's instructions. cDNA was mixed with RT^2 SYBR Green Mastermix (Qiagen) and loaded into RT Profiler™ PCR Array Mouse Type I Interferon Response or RT^2 Profiler™ PCR Array Mouse Epithelial to Mesenchymal Transition (EMT), analyzing the expression of 84 genes listed in Tables 9 and 10. The plates were analyzed using Light Cycler 480 (Roche) and data were analyzed using the Qiagen Data Analysis Centre and Graph Pad (Prism).
Quiagen RT^2 software was used to analyze all the samples from different groups. To be able to generate heatmaps and graph on fold change including error bars, the data have been analyzed manually with Graph Pad (Prism) when the Quiagen RT^2 software gave significant results between the different groups. For IFN type 1 response 1 mg/kg 48, 72 h and 3 mg/kg 48 h, were analyzed manually. For EMT, 1 mg/kg 48, 72 h, 3 mg/kg 72 h. When the data have been analyzed manually, the results are presented as histograms of mRNA fold changes. For the time points and doses analyzed by the software, the results are presented as tables.
GraphPadPrism was used to generate the heat maps, graphs with mRNA fold change, and to make the statistics. Multiple TTests, paired were performed on ΔΔ Ct values.
The expression of type I IFN related genes (ISG) was assessed in tumors collected 24, 48 and 72 hours after i.t. doxorubicin treatment. 3 groups were compared per timepoint: bemcentinib (bern), doxorubicin only (dox) and doxorubicin combined with bemcentinib (doxbern), the fold changes were compared with the control groups injected with PBS, and the fold change was 1 for the control groups.

[8] = in the presence of bemcentinib, read-out: IC50 with bem
[9] = Mus musculus, LL/2, read-out: IC50 without bem

In the case of N.N.[Cl][Pt][Cl] [Cisplatin, cisplatin], the “ISGs upregulated compared to control (number)” value ([1]; cisplatin 5 uM, 48 hours) is reported as 11, the IC50 [2, 8] is reported as 4650 nM and the IC50 ([2]; read-out: IC50 without bem) is reported as 6190 nM.

Cc1ccc2c(=O)c3cccc(CC(=O)O)c3oc2c1C [DMXAA, 5,6-Dimethylxanthenone-4-acetic Acid] was tested, and the “Cytokines with different concentration compared with controls (number)” value [3] was 8, the Tumor growth [4] was “decreased tumor growth” and the “ISG upregulated (number)” value [5] was 4. For the same molecule, the “IFN response after DMXAA stimulation” value [6] was “No significant changes”, the “ISG significantly upregulated compared to control (number)” value ([7]; 24 hours after DMXAA i.t. treatment) was 8 and the “ISG upregulated (number)” value ([7]; 48 hours after DMXAA injection) was 1. The “ISG upregulated compared to control (number)” value ([1]; DMXAA 25 ug/ml, 48 hours) was 20, the IC50 without bem [2] was “No effect” and the IC50 with bem ([2]; in the presence of bemcentinib) was “No effect”.

For CC(=O)O[C@@]12CO[C@@H]1C[C@H](O)[C@@]1(C)C(=O)[C@H](O)C3=C(C)[C@@H](OC(=O)[C@H](O)[C@@H](NC(=O)OC(C)(C)C)c4ccccc4)C[C@@](O)([C@@H](OC(=O)c4ccccc4)[C@H]21)C3(C)C [Docetaxel, docetaxel], the “ISG significantly upregulated compared to control (number)” value ([1]; docetaxel 5 nM) was 2, the IC50 [2, 9] was 14.1 nM and the IC50 [2, 8] was 7.26 nM.

With CCC1=C[C@@H]2CN(C1)Cc1c([nH]c3ccccc13)[C@@](C(=O)OC)(c1cc3c(cc1OC)N(C)[C@H]1[C@@](O)(C(=O)OC)[C@H](OC(C)=O)[C@]4(CC)C=CCN5CC[C@]31[C@@H]54)C2 [Navelbine, vinorelbine] the “ISG upregulated (number)” value ([1]; navelbine 1 nM, 48 hours) was “Four”, the IC50 [2, 9] was 10.1 nM and the IC50 [2, 8] was 0.752 nM.
